Results taken from patent US7504481B2, “TRP channel family member, LTRPC3 polypeptides” (Bristol-Meyers Squibb Company, priority 2001, dated 2009).
Values belong to the molecule of their own block, whether it stands above or below them.

Columns and labels:
[1] = tested on: HEK 293 cells; assay: Depletion of intracellular Ca2+ stores in LTRPC3-HA- and vector-transfected HEK 293 cells (FLIPR); assay type: cell-based; details: no external Ca^2+
[2] = biological target: T1, LTRPC3 (Homo sapiens, UniProt Q9HCF6, R1695Q); assay: FLIPR Fluo-4 Ca2+ entry in LTRPC3-transfected HEK 293 cells; assay type: cell-based; details: for effect on LTRPC3 mediated Ca^2+ currents / entry (in words): 100 μM for 10 min, 1 mM Ca^2+ solution, then 10 mM Ca^2+; for block of LTRPC3 Ca^2+ currents: pre-treatment with 100 μM, 1 mM Ca^2+ present, stimulated by adding 10 mM Ca^2+ (FIG. 19C)
T1 construct: the complete open reading frame of LTRPC3 with a C-terminal HA tag was transiently transfected into HEK 293 cells; expressed in transfected cells; host or cells: HEK 293 cells, transient transfection with pcDNA3.1/Hygro-LTRPC3-HA
Description: […] (A), or 50 μM carbachol (B) was first added to LTRPC3 expressing HEK 293 cells in the absence of external Ca^2+. After 9 minutes, 2 mM Ca^2+ solution was added to the cell medium at the indicated times.Currents for vector transfected HEK 293 cells, and LTRPC3 expressing HEK 293 cells are labeled accordingly. […] Cells loaded with Fluo-4 were incubated in 1 mM Ca^2+ solution and treated with 100 μM of La^3+ (“w/La^3+”), Gd^3+ (“w/Gd^3+”) or without blockers (“w/o blocker”) for 10 min prior to the addition of 10 mM Ca^2+ to the cell medium as indicated. Curves represent averages of three independent experiments, each involving at least 8 wells per condition. Physiometric methods were performed as described in Example 8 herein.
(§1) Panels A, C and E show results obtained for vector-transfected cells, while Panels B, D and F show results obtained for TRPM3-transfected cells. […] Cells loaded with Fluo-4 were incubated in 1 mM Ca^2+ solution and treated with 100 μM of Gd^3+ (red) or without blockers (black) for 10 min prior to the addition of 10 mM Ca^2+ to the bath solution as indicated. […] Cells loaded with Fluo-4 were incubated in a nominally Ca^2+-free media and treated without blockers (black) or with 100 μM of Gd^3+ (red) for 10 min prior to the addition of 2 μM TG (Panels C and D, first arrow) or 50 μM CCh (Panels E and F, first arrow), Ca^2+ entry was stimulated by the bath addition of […] (second arrow). Representative traces from one of three independent experiments are shown; each trace is the mean of 12 wells per condition. Physiometric methods were performed as described in Example 10 herein.
(§2) Moreover, physiometric studies have shown that LTRPC3 is a functional Ca^2+ permeable channel (see FIGS. 18 and 19, and Example 7). LTRPC3 function was assessed using a Fluorometric Imaging Plate Reader (FLIPR™) that measures real-time intracellular fluorescence changes. Cells transiently transfected with vector or LTRPC3-HA were loaded with the cytoplasmic Ca^2+ indicator Fluro-4 in a 1 mM Ca^2+ solution. […] The non-transfected cells were indistinguishable from the vector-transfected cells (data not shown). Therefore, LTRPC3 is a constitutively active channel capable of mediating Ca^2+ influx.
The lanthamides, gadolinium (Gd^3+) and lanthanum (La^3+), are noneselective Ca^2+-permeable channel blockers, often used as part of the characterization of overexpressed TRP channels. […] In the presence of 1 mM Ca^2+ in which endogenous SOCs is minimally activated (FIG. 18A), pre-treatment with 100 μM of La^3+and Gd^3+blocked LTRPC3 Ca^2+ currents, stimulated by adding 10 mM Ca^2+, by 67 and 39%, respectively.
Additional experiments were performed to further confirm the Ca^2+ store-depleted activation of LTRPC3 using Gd^3+. The effects of 100 μM Gd^3+ on Ca^2+ permeability were tested in vector- and LTRPC3-transfected cells. […] In contrast, 100 μM Gd^3+ inhibited Ca^2+ entry, induced by adding 10 mM Ca^2+, by 53% in LTRPC3-transfected cells (see FIG. 22B). Gd^3+ reduced fluorescence units in vector-transfected cells from 1470±140 to −58±8 and in LTRPC3-transfected cells from 6000±322 to 2080±199 (n=12). Fluorescence values were measured 150 seconds after adding 10 mM Ca^2+ and percent blockade was calculated as 1 minus FLTRPC3−FVector in the presence of Gd^3+ divided by FLTRPC3−FVector without blocker. The effects of Gd^3+ on LTRPC3-mediated Ca^2+ entry, induced by 10 mM Ca^2+, in the presence of thapsigargin or carbachol was also examined. Cells were incubated in nominally Ca^2+-free medium for thapsigargin and carbachol experiments. Gd^3+ inhibited Ca^2+ entry by 51% after depletion of intracellular stores with thapsigargin (see FIG. 22B). Gd^3+ reduced peak fluorescence after 10 mM Ca^2+ addition in vector-transfected cells from 26444±2410 to 1316±60 and in LTRPC3-transfected cells from 37676±2425 to 6783±250 (see FIGS. 22C and D, respectively; n=12). […]

[3] = tested on: endogenous Ca^2+ entry pathway in HEK 293 cells; assay: FLIPR Fluo-4 Ca2+ entry in vector-transfected HEK 293 cells (endogenous pathway); assay type: cell-based; details: 100 μM Gd^3+
Description: as §1, §2
To further address the mechanism of LTRPC3-mediated Ca^2+ entry, similar Ca^2+ addition experiments were performed on transfected cells incubated (˜30 min) in a nominally Ca^2+-free solution. Previous studies have shown that lowering extracellular Ca^2+ concentration below physiological levels can deplete intracellular Ca^2+ stores in many cell types including HEK 293 (EMBO J. 17, 4274-4282, (1998)). […]
Additional experiments were performed to further confirm the Ca^2+ store-depleted activation of LTRPC3 using Gd^3+. […] Gd^3+ reduced fluorescence units in vector-transfected cells from 1470±140 to −58±8 and in LTRPC3-transfected cells from 6000±322 to 2080±199 (n=12). Fluorescence values were measured 150 seconds after adding 10 mM Ca^2+ and percent blockade was calculated as 1 minus FLTRPC3−FVector in the presence of Gd^3+ divided by FLTRPC3−FVector without blocker. […] Gd^3+ reduced peak fluorescence after 10 mM Ca^2+ addition in vector-transfected cells from 26444±2410 to 1316±60 and in LTRPC3-transfected cells from 37676±2425 to 6783±250 (see FIGS. 22C and D, respectively; n=12). […] Gd^3+ reduced peak Ca^2+ fluorescence in vector-transfected cells from 9327±466 to 453±15 and in LTRPC3-transfected cells from 14747±988 to 1975±79 (see FIGS. 22E and F, respectively; n=12).

[4] = biological target: T1, LTRPC3; assay: FLIPR Fluo-4 Ca2+ entry in LTRPC3-transfected HEK 293 cells; assay type: cell-based; details: 100 μM Gd^3+, nominally Ca^2+-free medium
[5] = picogram quantities to the female vomeronasal organ; female recipients; cited from earlier work
[6] = tested on: nigral dopaminergic neurons; details: gel foam implants in the striatum; cited from earlier work

T1 sequence (Q9HCF6 with tags, fused parts or gaps isoform Q9HCF6-2 R1670Q limits assumed): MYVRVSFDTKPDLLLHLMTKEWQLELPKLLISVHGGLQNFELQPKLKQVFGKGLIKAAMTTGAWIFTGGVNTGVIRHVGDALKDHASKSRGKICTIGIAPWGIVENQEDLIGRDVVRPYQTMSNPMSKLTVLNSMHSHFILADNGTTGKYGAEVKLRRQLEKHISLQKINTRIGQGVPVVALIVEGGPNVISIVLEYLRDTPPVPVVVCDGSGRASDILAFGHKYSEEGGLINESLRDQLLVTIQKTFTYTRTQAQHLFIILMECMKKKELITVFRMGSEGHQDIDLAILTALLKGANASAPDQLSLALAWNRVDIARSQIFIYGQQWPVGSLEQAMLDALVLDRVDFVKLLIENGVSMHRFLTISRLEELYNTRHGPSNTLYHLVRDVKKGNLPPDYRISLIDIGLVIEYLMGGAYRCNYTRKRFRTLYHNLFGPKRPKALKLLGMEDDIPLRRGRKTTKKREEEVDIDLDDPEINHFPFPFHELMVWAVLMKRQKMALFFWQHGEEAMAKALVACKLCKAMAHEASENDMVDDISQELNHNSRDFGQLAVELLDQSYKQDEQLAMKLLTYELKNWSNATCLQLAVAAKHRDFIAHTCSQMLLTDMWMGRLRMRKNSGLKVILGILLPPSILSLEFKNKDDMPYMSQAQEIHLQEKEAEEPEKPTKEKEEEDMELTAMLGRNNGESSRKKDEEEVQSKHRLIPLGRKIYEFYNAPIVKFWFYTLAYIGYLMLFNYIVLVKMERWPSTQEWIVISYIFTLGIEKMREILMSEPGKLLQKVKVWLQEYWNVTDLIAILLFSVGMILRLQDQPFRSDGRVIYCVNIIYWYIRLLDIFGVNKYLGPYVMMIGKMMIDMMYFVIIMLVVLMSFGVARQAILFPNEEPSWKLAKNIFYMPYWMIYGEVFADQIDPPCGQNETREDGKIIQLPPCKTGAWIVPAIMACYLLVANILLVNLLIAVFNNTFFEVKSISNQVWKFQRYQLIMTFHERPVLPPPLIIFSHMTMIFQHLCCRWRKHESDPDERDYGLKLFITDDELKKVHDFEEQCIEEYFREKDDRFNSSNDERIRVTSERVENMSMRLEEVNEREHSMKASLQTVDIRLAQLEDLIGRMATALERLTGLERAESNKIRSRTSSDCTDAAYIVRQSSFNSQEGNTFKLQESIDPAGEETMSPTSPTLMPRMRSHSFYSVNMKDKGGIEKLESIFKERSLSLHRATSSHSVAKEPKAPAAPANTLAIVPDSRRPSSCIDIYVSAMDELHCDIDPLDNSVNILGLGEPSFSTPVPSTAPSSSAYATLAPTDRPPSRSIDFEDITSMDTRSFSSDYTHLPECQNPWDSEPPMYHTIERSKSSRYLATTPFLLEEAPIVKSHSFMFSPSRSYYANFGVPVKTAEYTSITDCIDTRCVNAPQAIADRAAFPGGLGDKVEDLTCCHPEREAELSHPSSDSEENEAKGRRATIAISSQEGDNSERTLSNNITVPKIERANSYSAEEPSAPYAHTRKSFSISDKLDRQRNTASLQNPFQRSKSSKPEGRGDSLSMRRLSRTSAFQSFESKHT

Molecule: C[N+](C)(C)CCOC(N)=O [CCh, Carbachol]
intracellular Ca^2+ response (in words) ([1]; 50 μM CCh, LTRPC3- and vector-transfected cells): transient and rapid intracellular Ca^2+ increase

fluorescence units in LTRPC3-transfected cells in the presence of Gd^3+ ([2]; 100 μM Gd^3+, 1 mM Ca^2+, 150 seconds after adding 10 mM Ca^2+, n=12): 2080±199 fluorescence units
inhibition of Ca^2+ entry in LTRPC3-transfected cells (percent blockade) ([2]; 100 μM Gd^3+, cells in 1 mM Ca^2+, entry induced by adding 10 mM Ca^2+, 150 seconds, vector signal subtracted): 53%
effect on LTRPC3 mediated Ca^2+ currents / entry (in words) [2]: partially inhibited
block of LTRPC3 Ca^2+ currents [2]: 39%
inhibition of Ca^2+ entry after depletion of intracellular stores with carbachol ([4]; 10 mM Ca^2+ addition): 72%
inhibition of Ca^2+ entry after depletion of intracellular stores with thapsigargin ([4]; 10 mM Ca^2+ addition): 51%
peak Ca^2+ fluorescence in LTRPC3-transfected cells, carbachol ([4]; store depletion with carbachol, n=12): 1975±79
peak fluorescence after 10 mM Ca^2+ addition in LTRPC3-transfected cells, thapsigargin ([4]; store depletion with thapsigargin, n=12): 6783±250
Molecule: [Gd+3] [Gd^3+, gadolinium]
fluorescence units in vector-transfected cells in the presence of Gd^3+ ([3]; 1 mM Ca^2+, 150 seconds after adding 10 mM Ca^2+, n=12): −58±8 fluorescence units
effect on minimal Ca^2+ influx in vector-transfected cells (in words) ([3]; 1 mM Ca^2+, addition of 10 mM Ca^2+): strongly inhibited
peak Ca^2+ fluorescence in vector-transfected cells, carbachol ([3]; store depletion with carbachol, nominally Ca^2+-free medium, n=12): 453±15
peak fluorescence after 10 mM Ca^2+ addition in vector-transfected cells, thapsigargin ([3]; store depletion with thapsigargin, nominally Ca^2+-free medium, n=12): 1316±60

effect on LTRPC3 mediated Ca^2+ currents / entry (in words) [2]: inhibited
block of LTRPC3 Ca^2+ currents [2]: 67%
Molecule: [La+3] [La^3+, lanthanum]

Molecule: C[C@@]12C=CC[C@H]1[C@@H]1CCC3=CC(=O)CC[C@]3(C)[C@H]1CC2 [androstadienone]
nervousness, tension and other negative feelings [5]: significant reduction

Molecule: C/C=C(/C)C(=O)O[C@H]1C(C)=C2[C@H]([C@@H]1OC(=O)CCCCCCC)[C@@](C)(OC(C)=O)C[C@H](OC(=O)CCC)[C@@]1(O)[C@H]2OC(=O)[C@@]1(C)O [thapsigargin]
depletion of Ca^2+ stores (in words) ([1]; 2 μM thapsigargin, LTRPC3-HA- and vector-transfected cells): equivalently depleted

Molecule: FGF-2: FGF-2 (basic FGF), fibroblast growth factor
protection of nigral dopaminergic neurons from the toxicity associated with MPTP exposure [6]: near complete protection
